Reference: the NIST ThermoML archive (doi:10.1016/j.jct.2008.07.019)
Several values for one entry are separate records, joined by “and”; a condition that tells them apart may be missing. Equal values may be shown once. Numbers after ± are expanded uncertainties.

Experiment: cn = amount concentration of the nth substance listed, in mol/dm3
Conditions: 101 kPa, Liquid, c1 = 2

| SMILES | viscosity (298.15 K) [mPa·s] | viscosity (303.15 K) [mPa·s] | viscosity (308.15 K) [mPa·s] | viscosity (313.15 K) [mPa·s] | viscosity (318.15 K) [mPa·s] | viscosity (323.15 K) |
| --- | --- | --- | --- | --- | --- | --- |
| [Cl-].[K+] [potassium chloride] + O | 0.887 ± 0.022 | 0.8552 ± 0.022 | 0.7658 ± 0.02 | 0.6995 ± 0.018 | 0.6492 ± 0.017 | 0.6037 ± 0.016 mPa·s |
| O=[N+]([O-])[O-].[K+] [potassium nitrate] + O | 0.9118 ± 0.023 | 0.8404 ± 0.021 | 0.7619 ± 0.02 | 0.6989 ± 0.018 | 0.64 ± 0.017 | 0.5929 ± 0.016 mPa·s and 0.5829 ± 0.016 mPa·s |
